{
  "source": "patent US5496703A",
  "about": "“Indirect immunoassay for dioxinlike compounds” (priority 1993, dated 1996)",
  "key": {"EGF receptor": {"test_system": "EGF receptor", "details": "cited from earlier work"}, "Ah receptor [1]": {"test_system": "Ah receptor", "details": "C57BL/6J mouse; cited from earlier work"}, "human receptor": {"test_system": "human receptor", "details": "cited from earlier work"}, "rodents": {"test_system": "rodents", "details": "guinea pig to hamster; cited from earlier work"}, "Ah receptor [2]": {"test_system": "Ah receptor", "details": "cited from earlier work"}, "[3]": {"test_system": "protein tyrosylphosphorylation in X3 human lymphoblastoma cells", "test": "Immunoblot / densitometry of X3 cell lysate phosphotyrosyl proteins", "format": "cell-based", "description": "The indicated densitometric measurements were made on a BioImage AK Kodak Visage 110.\nThe X3 human lymphoblastoma cells (Genetest, Wolburn, Mass.) were grown in 75 cm^2 T-flasks in RPMI 1640 medium (Gibco) containing 9% horse serum. Any cell or cell line expressing cytochrome P-450IA1 may be used. The cells were cultured at 37° C. in a 5% CO2 (balance air) environment. Cells were subcultured by centrifuging (1000 rpm, 3 minutes) and resuspended in fresh media to a volume of 50 mL (at a cell density of 1.0×10^6 cells/mL). The TCDD-corn oil solution was homogenized with serum to a final concentration of 0.10 μg/mL. The TCDD-serum was added at concentrations of 0, 0.02, 0.05, 0.1, 0.5 and 1.0 nM per flask and incubated for 16 hours. After the appropriate incubation time, the cells were harvested by centrifugation and washed three times (PBS, […]). A final cell count was then determined.\nThe separation of cell lysate proteins by means of SDS PAGE was performed by mixing the cell lysate 1:1 with a double strength sodium dodecyl sulfate sample buffer and heating the solution at 100° C. for 3 minutes prior to one-dimensional SDS polyacrylamide gel electrophoresis with 10% polyacrylamide. After electrophoresis, a Milliblot SDE electroblot apparatus (Millipore, Bedford, Mass.) was used to transfer the proteins from the polyacrylamide gels to an Immobilon™ membrane filter (Millipore). Complete transfers were accomplished in 25-30 min at 500 mA and were assessed by tracking pre-stained molecular weight standards onto the membrane filter. Membrane filters were blocked by incubating in TBS (Tris buffered saline) containing 5% milk for 30 minutes at 37° C. The membranes were then washed in TBST (TBS with 0.05% Tween 20) and incubated overnight with antiphoshphotyrosine monoclonal antibody (1.5 μg/mL) in TBST. The primary antibody was removed, and the membranes were washed four times in TBST. To visualize the antibody reaction, the membranes were incubated for 3 hours at 37° C. with alkaline phosphatase-conjugated antimouse IgG diluted 1:1000 in TBST, washed 3 times in TBST, and developed for 15 to 30 minutes. Determination of molecular weights of immuno-stained proteins was performed by adding molecular weight standards (Bio Rad) to reference lanes and staining the membrane filters with amido black.\nAn estimate of the limit of detection of dioxinlike activity can be made using the 0.2 nM dose as the minimally effective dose. At this level of administration the 57 kDalton band becomes easily visible. Assuming a 100 μL incubation well (e.g., in a 96 well microtiter plate), the diethyl ether extract would have to contain approximately 37.5 pg of dioxin equivalents to initiate a tyrosylphosphorylation of the 57 kDalton protein. This amount would be present in the extract of a 2 g sample containing 20 parts per trillion of dioxin equivalents. If the 33 kDalton protein were used to quantitate the dioxinlike activity, the limit of detection based upon a response at the EC50 of 0.04 nM, would be approximately 4 ppt. Since it is generally believed that an action concentration of dioxin is 50 ppt and current instrumental methods detect approximately 3.5 ppt, this level of analysis is sufficient for initial regulatory or health considerations."}, "[4]": {"details": "single human; cited from earlier work"}},
  "note": "“Also recorded” adds a separate entry of the source.",
  "data": [
    {"compound": "Clc1cc2c(cc1Cl)Oc1cc(Cl)c(Cl)cc1O2", "note": "[TCDD, 2,3,7,8-tetrachlorodibenzo-p-dioxin]", "values": [
      {"measurement": "plasma membrane EGF receptor levels", "setting": "EGF receptor", "result": "up-regulates plasma membrane EGF receptor levels"},
      {"measurement": "hepatic level of Ah receptor capable of binding TCDD", "setting": "Ah receptor [1]", "result": "40-120 fmol/mg of protein"},
      {"measurement": "binding to human receptor", "setting": "human receptor", "result": "Weaker binding"},
      {"measurement": "range of LD50 among rodents", "setting": "rodents", "result": "≥ 2500", "unit": "fold"},
      {"measurement": "hepatic level of TCDD binding Ah receptor", "setting": "Ah receptor [2]; DBA/2 mouse", "result": "less than 1 fmol of receptor/mg of cytosolic protein"},
      {"measurement": "binding to DBA/2 mouse receptor", "setting": "Ah receptor [2]", "result": "Weaker binding"},
      {"measurement": "minimal effective concentration", "setting": "[3]; Homo sapiens, 16 h, limit-of-detection estimate, read-out: minimally effective dose (57 kDalton band easily visible)", "result": 0.0002, "unit": "µM"},
      {"measurement": "EC50", "setting": "[3]; Homo sapiens, densitometry of immunoblot, 16 hours, read-out: EC50, 33 kDalton protein tyrosylphosphorylation", "result": 0.04, "unit": "nM"},
      {"measurement": "concentration of maximal 33 kDalton protein tyrosylphosphorylation", "setting": "[3]; densitometry of immunoblot, 16 hours", "result": 0.1, "unit": "nM"},
      {"measurement": "pTP at 57 kDaltons", "setting": "[3]; immunoblot", "result": "highly phosphorylated at tyrosine residues; also recorded: appeared in all X3 cells treated with TCDD"},
      {"measurement": "pTP at 110 kDaltons", "setting": "[3]; immunoblot", "result": "decreased with increasing TCDD concentration; also recorded: decreased in intensity"},
      {"measurement": "half-life", "setting": "[4]", "result": 5.8, "unit": "year"}
    ]}
  ]
}
